# In US7094754B2, “Anti-aging and wound healing compounds” (Kimberly-Clark Worldwide, Inc., priority 2001, dated 2006):
# Experiments:
# pro-MMP-9 = pro-MMP-9 (Homo sapiens, UniProt P14780); test: Anti-activation (splicing) assay, pro-MMP-9 with stromilysin, HPLC; format: biochemical; conditions: 0.5 μM or 1.0 μM peptide, 80 minute time course
# Method: FIG. 12 illustrates the conversion of pro-MMP-9 into N-terminal and C-terminal domains by stromilysin. […] At the times indicated, an aliquot was removed and subjected to HPLC. The pro-MMP peak area was integrated and was set to 100 percent for the zero time point sample.
# The assay measures how much proenzyme is converted into mature matrix metalloproteinase. Proenzyme pro-MMP-9 (100 μg) was mixed with 0.5 μg of stromilysin in PBS. The reaction was incubated at 35° C. Aliquots were removed from the reaction over an 80 minute time course. […] The zero (injection) time point was a single peak that elutes from the column in approximately 750 seconds. This peak reduces in size as a function of time, and two new peaks appear. The first peak elutes at approximately 800 seconds, and represents the mature form of MMP-9. The second peak elutes at approximately 1100 seconds, and corresponds to the N-terminal pro-domain fragment. Peak areas were determined by integrating over the elution profile, and the percent area changes were plotted.
# The first peak, eluting at approximately 700 seconds, is pro-MMP-9. As the splicing reaction proceeds, this peak decreases in intensity (as marked with the downwards arrow), and two new peaks appear. The first new peak, eluting at approximately 800 seconds, is mature and active MMP-9. The second new peak, eluting at approximately 1050 seconds, is the prodomain. […]
# MMP-9 = target: T1, MMP-9 (Homo sapiens, UniProt P14780); test: Isothermal titration calorimetry with MMP-9; format: binding
# T1 construct: Active MMP-9 enzyme was purchased from Calbiochem; purchased Calbiochem
# T1 sequence (P14780 107-707 limits assumed): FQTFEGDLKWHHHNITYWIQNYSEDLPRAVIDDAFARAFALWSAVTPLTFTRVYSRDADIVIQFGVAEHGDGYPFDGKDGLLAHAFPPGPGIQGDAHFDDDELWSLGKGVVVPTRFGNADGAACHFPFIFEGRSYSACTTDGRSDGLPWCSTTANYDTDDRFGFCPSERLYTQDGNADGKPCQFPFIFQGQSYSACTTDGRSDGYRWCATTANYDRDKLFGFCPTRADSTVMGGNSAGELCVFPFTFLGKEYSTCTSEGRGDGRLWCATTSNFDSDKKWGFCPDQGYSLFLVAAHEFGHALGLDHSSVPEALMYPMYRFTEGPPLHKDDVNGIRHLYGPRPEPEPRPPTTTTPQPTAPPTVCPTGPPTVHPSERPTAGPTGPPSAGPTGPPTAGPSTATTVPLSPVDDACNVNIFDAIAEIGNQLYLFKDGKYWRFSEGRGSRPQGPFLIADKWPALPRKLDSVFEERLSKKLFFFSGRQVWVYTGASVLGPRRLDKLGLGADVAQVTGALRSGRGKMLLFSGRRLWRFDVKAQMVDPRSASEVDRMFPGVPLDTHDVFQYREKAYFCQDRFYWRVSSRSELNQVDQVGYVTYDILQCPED
# Method: Isothermal titration calorimetry (ITC) was performed with a VP-ITC instrument from MicroCal, hIc. Titrations were carried out by injecting 5 μL of an inhibitor peptide solution (at concentration ranges from 0.5 mM to 2.0 mM) into the 1.4 mL stirred reaction cell. […] Titrations were conducted between 20° C. and 40° C. Typical experimental conditions for the titrations were a 10 second injection period followed by a 240 second delay between injections for a total of 40 injections. Blank titrations of inhibitor peptide into buffer were performed in order to correct for heats of dilution and mixing.
# The independent set of multiple binding sites is the most common model for binding experiment evaluations. The analytical solution for the total heat is determined by (Freire et al., 1990):
# [formula] where Q is the total heat, V is the cell volume, ΔH is the enthalpy, M is the macromolecule concentration (the binding partner in the cell), n is the binding stoichiometry, L is the ligand concentration (the binding partner in the syringe), and K is the association constant. Data were fit to this model using Origin version 5 (MicroCal, Inc.). Surface Plasmon Resonance
# The peptide was dissolved in 20 mM cacodylate (pH 6.8), 20 mM NaCl at a final concentration of 1 mM. MMP-9 was dialyzed into the same buffer at a final concentration of 20 μM. […]
# [1] = system: normal human epidermal keratinocytes (Clonetics, CC-2503); test: Keratinocyte proliferation assay; format: cell-based; conditions: 48 hours
# Method: The proliferative response of these human skin keratinocytes to the 19mer peptide (SEQ ID NO:11) was measured in a 96-well assay system using keratinocyte basal medium (KBM, Clonetics, catalog number CC-3103) as a control. […] The plates were incubated for 24 hours at 37° C. in a humidified 5% CO2 atmosphere. […] In addition, 100 μl of vehicle KBM was added to 10 wells as control. The plate was incubated for 48 hours at 37° C. in a humidified, 5% CO2 atmosphere. After incubation, 20 μl of Cell Titer 96 Aqueous One Solution was added to all wells. The plate was swirled gently and placed back in the incubator for 3 hours. The spectrophotometric absorbance of each well was read at 490 nm. Results were analyzed statistically using one-way ANOVA.
# [2] = system: human skin fibroblast cell line (Clonetics, CC-2509); test: Collagen production in human skin fibroblasts (Takara EIA kit); format: cell-based; conditions: for collagen production, Median (absorbance at 450 nm) / collagen production, Mean (absorbance at 450 nm): 48 hours; for collagen production, Mean (absorbance at 450 nm): n=2, control mean 0.7388
# Method: The stimulation response of the 19mer peptide (SEQ ID NO:11) on collagen production in the human skin fibroblast cell line (Clonetics, Walkersville, Md., normal human dermal fibroblasts, neonatal, catalog number CC-2509) was measured using Takara Biomedicals EIA assay kit (TAK MK101) sold by Panvera (Madison, Wis.). The cells were first grown in a 96-well assay system using Dulbecco's Modified Eagle's Medium (DMEM) with 10% fetal bovine serum (FBS) both purchased from Sigma Chemical Co, St. Louis, Mo. Serum-free DMEM was used as a control. […] Plates were incubated for 24 hours at 37° C. in a humidified 5% CO2 atmosphere. After incubation, the medium was aspirated and the wells were rinsed twice with 100 μl of serum-free DMEM. […] In addition, 100 μl of vehicle (serum-free DMEM) was added to 4 wells as control. All wells were incubated for 48 hours at 37° C. in a humidified, 5% CO2 atmosphere.
# The assay was performed using the recommended 20 ul of the supernatant from each well of the 96-well plate. Standard buffer and stop solutions were freshly prepared before running the assay. 100 ul of antibody-POD conjugate solution (supplied with the kit) was added into the wells using pre antibody coated 96 well plate (supplied with the kit). 20 ul of standard and test solutions (from the other 96-well plate containing fibroblasts) were added to appropriate wells. Plate was mixed gently, sealed and incubated for three hrs. at 37° C.
# After incubation each well was washed carefully four times with PBS buffer (400 ul). All the wells were completely emptied at the end of washing from any liquid. 100 ul of substrate solution (hydrogen peroxide and tetramethylbenzidine in a buffer solution, supplied with the kit) was added to each well and the plate was incubated for 15 minutes. At this point 100 ul of stop solution (freshly prepared 1N H2SO4) was added to each well in the same order as substrate. The plate was gently mixed and absorbance was read at 450 nm. Results were analyzed statistically using one-way ANOVA.
# pro-MMP-9, sequence (P14780 20-707): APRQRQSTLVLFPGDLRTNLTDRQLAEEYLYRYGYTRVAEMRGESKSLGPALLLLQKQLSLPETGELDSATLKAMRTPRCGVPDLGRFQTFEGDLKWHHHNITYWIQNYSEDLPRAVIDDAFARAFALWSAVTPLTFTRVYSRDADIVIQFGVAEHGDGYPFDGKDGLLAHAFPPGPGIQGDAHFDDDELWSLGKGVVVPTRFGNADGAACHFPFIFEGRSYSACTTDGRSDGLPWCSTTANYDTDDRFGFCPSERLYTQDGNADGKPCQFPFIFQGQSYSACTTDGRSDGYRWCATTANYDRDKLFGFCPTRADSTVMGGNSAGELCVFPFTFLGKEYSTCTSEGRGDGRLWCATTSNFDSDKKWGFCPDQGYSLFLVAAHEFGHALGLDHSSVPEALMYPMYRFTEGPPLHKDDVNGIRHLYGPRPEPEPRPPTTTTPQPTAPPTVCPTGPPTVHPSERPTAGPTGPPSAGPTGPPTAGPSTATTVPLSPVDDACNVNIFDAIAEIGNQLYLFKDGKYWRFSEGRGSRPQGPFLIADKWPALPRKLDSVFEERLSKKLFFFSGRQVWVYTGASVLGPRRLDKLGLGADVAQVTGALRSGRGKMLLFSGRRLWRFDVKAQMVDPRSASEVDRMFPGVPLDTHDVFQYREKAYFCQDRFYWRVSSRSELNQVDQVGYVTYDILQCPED
smiles,measurement,setting,value
CC(C)[C@H](NC(=O)[C@H](CC(=O)O)NC(=O)[C@@H]1CCCN1C(=O)[C@H](CC(N)=O)NC(=O)CNC(=O)[C@H](CS)NC(=O)[C@H](CCCNC(=N)N)NC(=O)[C@@H]1CCCN1)C(=O)N[C@@H](C)C(=O)N[C@@H](CC(N)=O)C(=O)N[C@@H](Cc1ccc(O)cc1)C(=O)N[C@@H](CC(N)=O)C(=O)N[C@@H](Cc1ccccc1)C(=O)N[C@@H](Cc1ccccc1)C(=O)N1CCC[C@H]1C(=O)N[C@@H](CCCNC(=N)N)C(=O)N[C@@H](CCCCN)C(=O)N1CCC[C@H]1C(=O)N[C@@H](CCCCN)C(=O)O [19-mer],conversion of pro-MMP-9 into prodomain and active enzyme by stromilysin,pro-MMP-9,prevents the conversion of pro-MMP-9 into the prodomain and the active enzyme
same,Kd,MMP-9,606 nM
same,Stoichiometry,"MMP-9; ITC, 1 mM peptide into 20 μM MMP-9, 20 mM cacodylate (pH 6.8), 20 mM NaCl",0.975 ± 0.02
same,keratinocyte growth (OD 490 nm) versus control,[1]; 1×10^−4 M,even greater cell growth
same,keratinocyte growth (OD 490 nm) versus control,[1]; 1×10^−5 M,significantly greater cell density
same,keratinocyte growth (OD 490 nm) versus control,[1]; 1×10^−6 M,only a small amount of cell proliferation
same,"collagen production, Median (absorbance at 450 nm)",[2]; 1×10^−5 M,0.8365
same,"collagen production, Mean (absorbance at 450 nm)",[2]; 1×10^−5 M,0.8365
same,"collagen production, Median (absorbance at 450 nm)",[2]; 1×10^−6 M,0.8315
same,"collagen production, Mean (absorbance at 450 nm)",[2]; 1×10^−6 M,0.8315
same,collagen production versus control,"[2]; 10^−5 and 10^−6 M, P<0.001",increased collagen production at both concentrations employed
